Assay results as given in article PMC4459106 (Scientific Reports, 2015).
One block for each substance: values may come before it.

How the values were obtained:
ERK2 = settings: cited from earlier work
Excerpt: While the biological relevance of this finding is debatable, care should be taken while analyzing in vitro data from studies that employ F-site and D-site containing ligands simultaneously.

[1] = target: T1, ppERK2 (D-recruitment site, DRS) (Rattus norvegicus, UniProt P63086); assay: NMR 15N,1H TROSY titration of ppERK2 with peptide ligand (CSPs; DRS affinity by two-site fit); format: binding, rat (rat ERK2 numbering used throughout); settings: 130 μM ppERK2, 50 mM HEPES pH 6.8, KIM15-31 up to 992.0 μM
T1 construct: made in house
Procedure: Spectral perturbations on ppERK2 were assessed from ^15N, ^1H TROSY experiments at 600 MHz and 25.0 °C using 1024 and 128 complex points and sweep-widths of 15 and 33 ppm in the ^1H and ^15N dimensions, respectively. […] A 130 μM sample of ppERK2 in a buffer containing 50 mM HEPES pH 6.8, 150 mM NaCl, 200 μM EDTA and 2 mM DTT was titrated with the following amounts of KIM15-31: 49.2, 99,8, 149.0, 296.2, 450.6, 992.0 μM.

ppERK2 = target: T2, ppERK2 (Rattus norvegicus, UniProt P63086); assay: Fluorescence-based kinase assay, phosphorylation of ERK-sensor-D1 by ppERK2; format: biochemical, rat (rat ERK2 numbering used throughout); settings: for Km: 2 nM ppERK2, 25 mM HEPES pH 7.5, 10 mM MgCl2, 28 °C, fluorescence 360/492 nm; for Vmax: 2 nM ppERK2, 25 mM HEPES pH 7.5, 28 °C
T2 construct: made in house
Procedure: The ERK-sensor-D1 peptide[57] […] The reaction was initiated after 1 hour of pre-incubation at room temperature by adding 10 μL of 5 mM Mg^2+/ATP to 90 μL of assay mixture and the fluorescence intensity was recorded at each time point for a total of 6 minutes on a Fluorolog fluorimeter (Horiba Jobin Yvon) in quartz cuvettes (Starna Cells) with a 10 mm path length and a reaction volume of 100 μL. The sample was excited at 360 nm and fluorescence was monitored at 492 nm using excitation and emission slit widths of 3 nm. The change in fluorescence was related to the progression of the reaction using a previously determined conversion factor[58].

T2 sequence (P63086 whole entry): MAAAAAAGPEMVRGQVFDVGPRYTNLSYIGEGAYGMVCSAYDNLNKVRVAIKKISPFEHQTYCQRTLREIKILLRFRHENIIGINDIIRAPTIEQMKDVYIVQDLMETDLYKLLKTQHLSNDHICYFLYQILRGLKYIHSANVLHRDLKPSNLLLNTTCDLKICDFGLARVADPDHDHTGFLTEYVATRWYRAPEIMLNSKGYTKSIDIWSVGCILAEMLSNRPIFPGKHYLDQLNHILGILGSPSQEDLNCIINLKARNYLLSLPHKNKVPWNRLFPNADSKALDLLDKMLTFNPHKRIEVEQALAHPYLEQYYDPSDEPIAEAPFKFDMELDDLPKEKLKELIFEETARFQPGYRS
T1 sequence (P63086 whole entry): as above

Substance: Ets-1: transcription factor possessing neither a canonical D-site nor F-site
- binding to ERK2 (ERK2): efficiently bind ERK2

Substance: KIM15-31: DRS specific ligand (TLSLGAAMTQPPPEKTP; UniProt P35236 15-31, looked up, fragment)
- CSPs on titration of ppERK2 with KIM15-31 [1]: the only significant CSPs are seen at the DRS and no significant long-range perturbations including at the FRS, are noted

Substance: PEA-15: anti-apoptotic small adaptor protein without canonical D-site or F-site sequences
- binding to ERK2 (ERK2): efficiently bind ERK2

- Km (ppERK2; absence of Elk387-399): 10.1 ± 0.8 µM
- Vmax (ppERK2; absence of Elk387-399): 21.4 ± 0.5 nM phosphate/second
- Km (ppERK2; presence of 100 μM Elk387-399): 22.7 ± 2.8 µM
- Vmax (ppERK2; presence of 100 μM Elk387-399): 23.4 ± 1.1 nM phosphate/second
Substance: QRKTLQRRNLKGLNLNL-X3-TGPLSPC-Sox-PF [ERK-sensor-D1]

Substance: c-Fos: F-site containing c-Fos
- increase in apparent KD of interaction with ppERK2 on DRS mutation (ERK2; F-site containing c-Fos, DRS-mutant vs native ERK2): 2-3 -fold
